According to ChEMBL document CHEMBL1201862, “PubChem BioAssay data set” (2004):
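Tested at 5 concentrations; 48 h exposure; 96-well plates; endpoints linearly interpolated, else capped at highest concentration. Abbreviation: GI50, concentration required for 50% inhibition of growth.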 Active and inactive are the calls of the source. Cut-off read from the data, not from the text of the source: active = GI50 up to about 1.1 µM and inactive = higher.

How the values were obtained:
Test in all cases: NCI-60 cell line screen, 48 h
NCI-H226 = tested on: NCI-H226
SK-MEL-5 = tested on: SK-MEL-5
K562 = tested on: K562
OVCAR-3 = tested on: OVCAR-3
PC-3 = tested on: PC-3
RPMI-8226 = tested on: RPMI-8226
SNB-75 = tested on: SNB-75
NCI-H460 = tested on: NCI-H460
EKVX = tested on: EKVX
NCI-H522 = tested on: NCI-H522
KM12 = tested on: KM12
BT-549 = tested on: BT-549
Malme-3M = tested on: Malme-3M
OVCAR-4 = tested on: OVCAR-4
HCT-116 = tested on: HCT-116
IGROV-1 = tested on: IGROV-1
SK-MEL-2 = tested on: SK-MEL-2
MDA-MB-435 = tested on: MDA-MB-435
DU-145 = tested on: DU-145
UACC-257 = tested on: UACC-257
HCT-15 = tested on: HCT-15
OVCAR-8 = tested on: OVCAR-8
HOP-62 = tested on: HOP-62
UO-31 = tested on: UO-31
786-0 = tested on: 786-0
NCI/ADR-RES = tested on: NCI/ADR-RES
A549 = tested on: A549
CCRF-CEM = tested on: CCRF-CEM
RXF 393 = tested on: RXF 393
OVCAR-5 = tested on: OVCAR-5
SF-268 = tested on: SF-268
COLO 205 = tested on: COLO 205
NCI-H23 = tested on: NCI-H23
SK-OV-3 = tested on: SK-OV-3
MCF7 = tested on: MCF7
ACHN = tested on: ACHN
Hs-578T = tested on: Hs-578T
M14 = tested on: M14
SF-295 = tested on: SF-295
SN12C = tested on: SN12C
TK-10 = tested on: TK-10
MOLT-4 = tested on: MOLT-4
HOP-92 = tested on: HOP-92
SF-539 = tested on: SF-539
SNB-19 = tested on: SNB-19
UACC-62 = tested on: UACC-62
HCC 2998 = tested on: HCC 2998
U-251 = tested on: U-251
LOX IMVI = tested on: LOX IMVI
MDA-N = tested on: MDA-N
A498 = tested on: A498
HL-60 = tested on: HL-60
HT-29 = tested on: HT-29
SK-MEL-28 = tested on: SK-MEL-28
CAKI-1 = tested on: CAKI-1
SR = tested on: SR
T47D = tested on: T47D
MDA-MB-231 = tested on: MDA-MB-231
SW-620 = tested on: SW-620

Measured: GI50

O=C(O)c1ccccc1.[Ag]
21.6 µM: HCT-15
inactive: NCI-H226 > 100 µM | SK-MEL-5 4.73 µM | K562 3.2 µM | OVCAR-3 12.9 µM | PC-3 15.8 µM | RPMI-8226 2.23 µM | SNB-75 3.36 µM | NCI-H460 11.1 µM | EKVX 26.6 µM | NCI-H522 1.5 µM | KM12 19.5 µM | BT-549 27.2 µM | Malme-3M 1.7 µM | OVCAR-4 14.7 µM | HCT-116 6.32 µM | IGROV-1 15.7 µM | SK-MEL-2 14.4 µM | MDA-MB-435 16.8 µM | DU-145 17.5 µM | UACC-257 5.11 µM | OVCAR-8 28.1 µM | HOP-62 21.3 µM | UO-31 2.13 µM | 786-0 17.3 µM | NCI/ADR-RES 34.6 µM | A549 6.81 µM | CCRF-CEM 1.99 µM | RXF 393 18.2 µM | OVCAR-5 22.9 µM | SF-268 21.8 µM | COLO 205 1.87 µM | NCI-H23 22.6 µM | SK-OV-3 17.4 µM | MCF7 13.3 µM | ACHN 6.47 µM | Hs-578T 28.2 µM | M14 19.5 µM | SF-295 64 µM | SN12C 23 µM | TK-10 7.11 µM | MOLT-4 2.55 µM | HOP-92 21.7 µM | SF-539 21.3 µM | SNB-19 39.4 µM | UACC-62 18.1 µM | HCC 2998 19.2 µM | U-251 18.5 µM | LOX IMVI 11.1 µM | MDA-N 7.91 µM | A498 19.2 µM | HL-60 3.98 µM | HT-29 20 µM | SK-MEL-28 16.9 µM | CAKI-1 5.5 µM | SR 5.12 µM | T47D 2.46 µM

CN(NC(=O)c1cccs1)C1=NCCCCN1
inactive: NCI-H226 > 100 µM | SK-MEL-5 > 100 µM | K562 > 100 µM | OVCAR-3 > 100 µM | PC-3 > 100 µM | RPMI-8226 > 100 µM | SNB-75 > 100 µM | NCI-H460 > 100 µM | MDA-MB-231 > 100 µM | EKVX > 100 µM | NCI-H522 > 100 µM | KM12 > 100 µM | BT-549 > 100 µM | Malme-3M > 100 µM | OVCAR-4 > 100 µM | HCT-116 > 100 µM | IGROV-1 > 100 µM | SK-MEL-2 > 100 µM | MDA-MB-435 > 100 µM | UACC-257 > 100 µM | OVCAR-8 > 100 µM | HOP-62 > 100 µM | UO-31 > 100 µM | 786-0 > 100 µM | NCI/ADR-RES > 100 µM | A549 > 100 µM | CCRF-CEM > 100 µM | RXF 393 > 100 µM | OVCAR-5 > 100 µM | SF-268 > 100 µM | COLO 205 > 100 µM | NCI-H23 > 100 µM | SK-OV-3 > 100 µM | MCF7 > 100 µM | ACHN > 100 µM | Hs-578T > 100 µM | M14 > 100 µM | SF-295 > 100 µM | TK-10 > 100 µM | MOLT-4 > 100 µM | HOP-92 > 100 µM | SF-539 > 100 µM | SNB-19 > 100 µM | UACC-62 > 100 µM | HCC 2998 > 100 µM | U-251 > 100 µM | LOX IMVI > 100 µM | MDA-N > 100 µM | SW-620 > 100 µM | A498 > 100 µM | HL-60 > 100 µM | HT-29 > 100 µM | SK-MEL-28 > 100 µM | SR > 100 µM | T47D > 100 µM
> 100 µM: HCT-15
